In series [1] the test system is Mus musculus. The experiment in a line: Antiobesity activity in HFD-induced obese Jcl:MCH mouse model assessed as decrease in visceral fat administered as supplement for 86 days measured after 90 days by MRI relative to control. The class given is functional.
In series [2] the test system is Mus musculus. The experiment in a line: Reduction in ACC mRNA levels in HFD-induced obese Jcl:MCH mouse model liver administered as supplement for 86 days measured after 100 days by RT-PCR relative to HFD-fed control. The class given is functional, organism-based.
In series [3] the test system is Mus musculus. The experiment in a line: Antiobesity activity in HFD-induced obese Jcl:MCH mouse model assessed as decrease in subcutaneous fat administered as supplement for 86 days measured after 90 days by MRI (reference value: 20.8 +/- 1.7 %). Further details: scale not given: the % may be the effect or the level left. In kind it is functional.
For series [4], the system named is Mus musculus. The experiment in a line: Reduction in serum insulin levels in HFD-induced obese Jcl:MCH mouse model administered as supplement for 86 days measured after 100 days by ELISA relative to HFD-fed control. In kind it is functional, organism-based. (In general: An ELISA detects its analyte on a solid surface through an enzyme-linked reagent.)
Series [5] concerns Mus musculus. Kind of series: Reduction in FAS mRNA levels in HFD-induced obese Jcl:MCH mouse model liver administered as supplement for 86 days measured after 100 days by RT-PCR relative to HFD-fed control. The class given is functional, organism-based.
Series [6] relates to Mus musculus. Kind of series: Reduction in leptin mRNA levels in HFD-induced obese Jcl:MCH mouse model adipose tissue administered as supplement for 86 days measured after 100 days by RT-PCR relative to HFD-fed control. The class given is functional, organism-based.
In series [7] the test system is Mus musculus. Kind of series: Reduction in serum leptin levels in HFD-induced obese Jcl:MCH mouse model administered as supplement for 86 days measured after 100 days by ELISA relative to HFD-fed control. In kind it is functional, organism-based.
Series [8] has as its system Mus musculus. Kind of series: Reduction in TNFalpha mRNA levels in HFD-induced obese Jcl:MCH mouse model adipose tissue administered as supplement for 86 days measured after 100 days by RT-PCR relative to HFD-fed control. In kind it is functional, organism-based.
The test system of series [9] is Mus musculus. The experiment in a line: Antiobesity activity in HFD-induced obese Jcl:MCH mouse model assessed as decrease in body weight administered as supplement for 86 days (reference value: 51.2 +/- 2.7 g). The class given is functional.
For series [10], the system named is 3T3-L1. The experiment in a line: Increase in adiponectin mRNA levels in TNFalpha-induced mouse 3T3L1 cells pretreated at 25 to 50 uM before TNF-alpha challenge relative to control. The class given is functional, cell-based.
Series [11] has as its system Mus musculus. Kind of series: Hypoglycemic activity in HFD-induced obese Jcl:MCH mouse model assessed as decrease in post prandial blood glucose levels administered as supplement for 86 days measured after 92 to 94 days by OGTT relative to HFD-fed control. In kind it is functional, organism-based.
Series [12] concerns Mus musculus. Kind of series: Hypoglycemic activity in HFD-induced obese Jcl:MCH mouse model assessed as decrease in fasting blood glucose levels administered as supplement for 86 days measured after 92 to 94 days by OGTT relative to HFD-fed control. The class given is functional, organism-based.
Series [13] relates to Mus musculus. Kind of series: Reduction in SREBP1c mRNA levels in HFD-induced obese Jcl:MCH mouse model administered as supplement for 86 days measured after 100 days by RT-PCR relative to HFD-fed control. The class given is functional, organism-based.
Series [14] can be described thus: Stability of the compound in simulated gastric fluid at pH 1.0 assessed as formation of shogaols. The class given is physicochemical. Particulars: simulated gi fluid.
A short description of series [15]: Stability of the compound in 6 N HCl assessed as formation of shogaols. The class given is physicochemical. Particulars: buffer.
For series [16], the system named is Mus musculus. The experiment in a line: Antiobesity activity in regular chow-fed Jcl:MCH mouse assessed as decrease in subcutaneous fat administered as supplement for 86 days measured after 90 days by MRI (reference value: 5.4 +/- 1.7%). In kind it is functional. Further details: scale not given: the % may be the effect or the level left.
Series [17] concerns 3T3-L1. The experiment in a line: Increase in adiponectin mRNA levels in TNFalpha-induced mouse 3T3L1 cells pretreated at 50 uM before TNF-alpha challenge relative to control. The class given is functional, cell-based.
For series [18], the system named is Mus musculus. Kind of series: Antiobesity activity in regular chow-fed Jcl:MCH mouse assessed as decrease in body weight administered as supplement for 86 days (reference value: 45.0 +/- 0.8 g). The class given is functional.
For series [19], the system named is 3T3-L1. The experiment in a line: Increase in adiponectin mRNA levels in TNFalpha-induced mouse 3T3L1 cells pretreated at 10 uM before TNF-alpha challenge relative to control. In kind it is functional, cell-based.

Molecules are shown by their SMILES. Activity calls are given as the source filed them. The calls are words filed in the database; no cut-off is given here.

With `CCCCCC(O)CC(=O)CCc1ccc(O)c(OC)c1` (configuration not stated), the Activity in the series on Mus musculus [1] is given as 3.5 g; in the series with Mus musculus [3] it was 6.7%; with Mus musculus [9] it was 47.1 g. Further, the outcome in the series on Mus musculus [2], with Mus musculus [4], in the series on Mus musculus [5], in the series on Mus musculus [6], in the series on Mus musculus [7] and in the series with Mus musculus [8] was Active. In addition, the result in the series with 3T3-L1 [10], in the series with Mus musculus [11], in the series with Mus musculus [12] and in the series on Mus musculus [13] was Active.

Turning to `CCCCCC(O)CC(=O)NCc1ccc(O)c(OC)c1` (configuration not stated), the Stability entry in series [14] and in series [15] was “Stable” each time. The Activity amounted to 6.7% in the series on Mus musculus [16]; 1.84 g with Mus musculus [1]; 41.6 g with Mus musculus [18]; 10.9% with Mus musculus [3]; 41.6 g in the series with Mus musculus [9]. Also, the outcome with 3T3-L1 [17], in the series with Mus musculus [2], in the series on Mus musculus [4], with Mus musculus [5], in the series with Mus musculus [6] and in the series on Mus musculus [7] was Active. The outcome in the series with Mus musculus [8], in the series on 3T3-L1 [10], with Mus musculus [11], in the series on Mus musculus [12] and with Mus musculus [13] was Active.

For the compound `CN(CCOc1ccc(CC2SC(=O)NC2=O)cc1)c1ccccn1` (configuration not stated), in the series with 3T3-L1 [19], the outcome was Active.

Values taken from ChEMBL document CHEMBL2150906, “Synthesis of a new [6]-gingerol analogue and its protective effect with respect to the development of metabolic syndrome in mice fed a high-fat diet” (J Med Chem, 2011).
